Experimental data: patent publication US11957766B2, “HNQO1-activatable fluorescent probe for imaging cancer cells in-vitro and in-vivo” (Texas Tech University System, priority 2019, dated 2024)
“Also recorded” adds a separate entry of the source.

Tests used:
[1] = Photophysical property of the fluorophore ASM; assay type: physicochemical
From the text: Design, preparation, and characterization of the NIR-ASM fluorescent probe. Imaging agents emitting near-infrared fluorescence enable deeper penetration with low phototoxicity and high signal-to-background ratios due to minimal tissue auto-fluorescence, which is a prime requirement for in vivo imaging studies.^40,41 Accordingly, the inventors designed an NQO1 activatable near-infrared fluorescent probe (NIR-ASM) by attaching a trimethyl-lock QPA with (E)-2-(3-(4-aminostyryl)-5,5-dimethylcyclohex-2-en-1-ylidene)malononitrile (ASM) for molecular imaging of cancer cells in vivo (FIG. 9A). The fluorophore ASM was used in this study because of its strong NIR fluorescence signal with substantial Stokes shift (˜190 nm), to eliminate background interferences by avoiding reabsorption of emitted photons. […] NQO1 is a ubiquitous cytosolic two-electron reductase that catalyzes the reduction of quinone substrates in the presence of NADH. Upon interaction with NQO1 in the presence of NADH, QPA present in non-fluorescent NIR-ASM undergoes two-electron reduction to form an o-hydroxydihydrocinnamic acid derivative that undergoes rapid lactonization under physiological conditions to yield dihydrocoumarin, 6-hydroxy-4,4,5,7,8-pentamethylchroman-2-one (HPC) along with highly fluorescent ASM. […]

[2] = test system: NQO1 in A549 and H460 cells; assay: ES936 pretreatment of cells before NIR-ASM (microscopy and flow cytometry); assay type: cell-based, human
Procedure: Chemical and genetic approaches confirm the specificity of NIR-ASM for NQO1 in live tumor cells. A fluorescence probe with high sensitivity, simple operation, and excellent specificity will be an asset for the detection of NQO1 in situ. To assess the substrate selectivity of NIR-ASM for NQO1, both A549 and H460 cells were pretreated with 100 nM of NQO1 inhibitor ES936 for 6 h, before incubating with 10 μM NIR-ASM. […] The effect of ES936 on endogenous NQO1 activity and subsequent reactivity with NIR-ASM was also determined by flow cytometry. […] The presence of NQO1 protein in the transfected MDA-MB-231 cells and its absence in the untransfected control was confirmed by immunoblotting (FIG. 13E). Subsequently, the NQO1-negative and positive MDA-MB-231 cell lines were incubated with NIR-ASM and analyzed by fluorescence microscopy and flow cytometry for activation of the probe.
Fluorescence imaging. Both cancer and normal cells were seeded into 6-well plates and cultured overnight in respective media at 37° C. […] Finally, the medium was replaced with PBS and the live cells were imaged using a multiphoton confocal fluorescence microscope (λex/em=488/644 nm). […]
Flow cytometry analysis. The endogenous NQO1 activity of cancer cells and normal cells was determined by flow cytometry after NIR-ASM exposure. […] About 1×10^4 cells were analyzed by flow cytometry (λex=488 nm).

[3] = molecular target: T1, NQO1 (Homo sapiens, UniProt P15559); assay: Inhibitory effect of ES936 on hNQO1 activation of NQ-DCP; assay type: biochemical; conditions: ES936 0-100 nM, enzyme pre-treated, 30 min
T1 sequence (P15559 whole entry): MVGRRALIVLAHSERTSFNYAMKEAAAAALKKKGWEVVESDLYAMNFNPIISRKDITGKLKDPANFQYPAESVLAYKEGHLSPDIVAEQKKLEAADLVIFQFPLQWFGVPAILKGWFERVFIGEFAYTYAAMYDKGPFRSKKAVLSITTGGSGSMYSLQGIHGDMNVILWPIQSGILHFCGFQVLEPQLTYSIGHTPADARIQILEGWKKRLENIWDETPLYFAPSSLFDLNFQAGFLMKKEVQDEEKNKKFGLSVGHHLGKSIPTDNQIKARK
Procedure: Selectivity of NQ-DCP Towards hNQO1. The specificity of NQ-DCP probe towards hNQO1 was studied by determining its reactivity towards various biomolecules such as the glutathione (GSH, 1 mM), aldehyde dehydrogenase 1 (ALDH1A1, 2.5 μg/mL), gamma-glutamyl transferase (GGT, 10 U), glutathione Peroxidase (GPx, 10 U), apurinic/apyrimidinic endonuclease (APE1, 10 U), cystathionine-β-synthase (CBS, 2 μg/mL), cathepsin L (CTSL, 2 μg/mL), glutathione S-transferase (GST-pi, 2 μg/mL), nitroreductase (NTR, 2 μg/mL) and NADH (100 μM) alone or the combination of and NQO1 (2.5 μg/mL). […] To gain more insight into the specificity of the probe towards hNQO1, the enzyme was pre-treated with ES936 (0-100 nM), a well-known hNQO1 inhibitor [39] and then incubated with NQ-DCP.
Evaluation of Inhibitor Efficiency. To evaluate the inhibitory efficiency of ES936 towards hNQO1 under in vitro conditions, different concentrations of ES936 (0-100 nM) incubated with 2.0 μg/mL of NQO1, 100 μM NADPH in PBS with 0.1% BSA (pH 7.4) at 37° C. Fluorescence emission was recorded after 30 min of incubation (λex=420 nm).

[4] = molecular target: T1, NQO1; assay: Effect of NQO1 inhibitor ES936 on NQO1 activation of NIR-ASM; assay type: biochemical; set-up: purchased Sigma-Aldrich D1515; conditions: ES936 0-100 nM, NQO1 pretreated
Procedure: Selectivity of NIR-ASM. The selectivity of NIR-ASM probe was studied by examining its reactivity towards various biomolecules and antioxidant enzymes such as the glutathione, aldehyde dehydrogenase 1, gamma-glutamyl transferase, glutathione peroxidase, apurinic/apyrimidinic endonuclease, cystathionine-β-synthase, cathepsin L, glutathione S-transferase, NADH alone and the combination of nitroreductase and NQO1.
NQO1 inhibitor efficiency evaluation. NQO1 inhibitor efficiency was evaluated using specific NQO1 inhibitor ES936 under in vitro conditions. 2.5 μg/mL of NQO1 was incubated with different concentrations of ES936 (0-100 nM) in the presence of 100 μM NADH at 37° C. Fluorescence emission was recorded after 30 min of incubation (λex. 460 nm).

[5] = test system: hNQO1 in T98G cells; assay: ES936 pretreatment of cells before NQ-DCP, fluorescence microscopy; assay type: cell-based, human; conditions: 100 nM ES936 for 6 h, then 10 μM NQ-DCP
Procedure: Evaluation of Specificity in Cancer Cells. To show the substrate selectivity of NQ-DCP for hNQO1, T98G cells were pretreated with 100 nM of NQO1 inhibitor ES936 for 6 h and incubated 10 μM of NQ-DCP.
Cell Culture, Fluorescence Imaging, and Flow Cytometry Analysis. Brain tumor cells and astrocytes were grown in Dulbecco's modified Eagle's (DMEM) medium containing 10% Fetal Bovine Serum and 1% penicillin/streptomycin in a humidified atmosphere of 5% CO2 at 37° C. For fluorescence imaging, initially, cells were seeded into 6-well plate and cultured overnight in respective media at 37° C. Media was replaced with fresh medium containing 10 μM NQ-DCP and incubated at 37° C. for 60 min and then the medium was replaced with PBS and live cells were imaged using a fluorescence microscope. For inhibitor study, cells were pretreated with NQO1 inhibitor ES936 (100 nM) for 6 h before adding the NQ-DCP. For determining endogenous hNQO1 activity in cancer cells using flow cytometry, about 10×10^4 cells were incubated with 10 μM of NQ-DCP for 60 min and were analyzed using flow cytometry.

Structure (SMILES)	Stokes shift [1] [nm]	effect on NIR-ASM fluorescence in cells (microscopy) ([2]; 100 nM ES936 for 6 h, then 10 μM NIR-ASM)	effect on NIR-ASM induced fluorescence intensity (flow cytometry) ([2]; 100 nM ES936 pretreated tumor cells)	effect on the fluorescence response of NQ-DCP to hNQO1 [3]	effect on the fluorescence response of NIR-ASM to NQO1 [4]	effect on NQ-DCP fluorescence in cells [5]
CC1(C)CC(/C=C/c2ccc(N)cc2)=CC(=C(C#N)C#N)C1 [ASM, (E)-2-(3-(4-aminostyryl)-5,5-dimethylcyclohex-2-en-1-ylidene) malononitrile]	~190	–	–	–	–	–
COC1=CC(=O)c2c(c(COc3ccc([N+](=O)[O-])cc3)c(C)n2C)C1=O [ES936]	–	completely blocked the NIR-ASM fluorescence	significantly decreased	effectively suppressed the fluorescence response in a concentration-dependent manner; also recorded: completely blocked the NQ-DCP fluorescence	effectively suppressed the fluorescence response in a concentration-dependent fashion	completely blocked the NQ-DCP fluorescence
